Assay results as given in PubChem BioAssay AID2060505 (Molecular Pharmacology Branch, DTP, NCI, 2025).

Tested on: 633275-114-R-J1-PDC complex spheroids, viability
Assay: Anticancer human tumor 633275-114-R-J1-PDC patient-derived endometrial adenocarcinoma cell line growth inhibition [GQUAD]
Settings: for IC50: curve of first compound; for viability, T/C: stronger effect = lower value
Procedure, shortened: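 Viability of tumor cells grown as complex spheroids with endothelial and stromal cells, exposed to drug combinations. Top concentration at or near clinical Cmax (else 10 microM), diluted in half-log increments.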

[1] = second compound 0.0316 µM, first compound 0.0316 µM
[2] = second compound 0.0316 µM, first compound 0.1 µM
[3] = second compound 0.0316 µM, first compound 0.316 µM
[4] = second compound 0.0316 µM, first compound 1 µM
[5] = second compound 0.0316 µM, first compound 3.16 µM
[6] = second compound 0.0316 µM, first compound 10 µM
[7] = second compound 0.1 µM, first compound 0.0316 µM
[8] = second compound 0.1 µM, first compound 0.1 µM
[9] = second compound 0.1 µM, first compound 0.316 µM
[10] = second compound 0.1 µM, first compound 1 µM
[11] = second compound 0.1 µM, first compound 3.16 µM
[12] = second compound 0.1 µM, first compound 10 µM
[13] = second compound 0.316 µM, first compound 0.0316 µM
[14] = second compound 0.316 µM, first compound 0.1 µM
[15] = second compound 0.316 µM, first compound 0.316 µM
[16] = second compound 0.316 µM, first compound 1 µM
[17] = second compound 0.316 µM, first compound 3.16 µM
[18] = second compound 0.316 µM, first compound 10 µM
[19] = second compound 1 µM, first compound 0.0316 µM
[20] = second compound 1 µM, first compound 0.1 µM
[21] = second compound 1 µM, first compound 0.316 µM
[22] = second compound 1 µM, first compound 1 µM
[23] = second compound 1 µM, first compound 3.16 µM
[24] = second compound 1 µM, first compound 10 µM
[25] = second compound 3.16 µM, first compound 0.0316 µM
[26] = second compound 3.16 µM, first compound 0.1 µM
[27] = second compound 3.16 µM, first compound 0.316 µM
[28] = second compound 3.16 µM, first compound 1 µM
[29] = second compound 3.16 µM, first compound 3.16 µM
[30] = second compound 3.16 µM, first compound 10 µM
[31] = second compound 10 µM, first compound 0.0316 µM
[32] = second compound 10 µM, first compound 0.1 µM
[33] = second compound 10 µM, first compound 0.316 µM
[34] = second compound 10 µM, first compound 1 µM
[35] = second compound 10 µM, first compound 3.16 µM
[36] = second compound 10 µM, first compound 10 µM
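Also: spheroids exposed to the agents for seven days.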
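For viability, T/C in this document: percent of DMSO vehicle control viability which is 100%.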

`C=CCn1c(=O)c2cnc(Nc3ccc(N4CCN(C)CC4)cc3)nc2n1-c1cccc(C(C)(C)O)n1` + CN(C)c1ccc(Nc2c3ccc(NC(=O)CCN4CCCC4)cc3nc3cc(NC(=O)CCN4CCCC4)ccc23)cc1 gave an IC50 (second compound 0.0316 µM) of 0.582 µM, an IC50 (second compound 0.1 µM) of 0.692 µM and an IC50 (second compound 0.316 µM) of 0.586 µM. The IC50 (second compound 1 µM) was 0.641 µM, the IC50 (second compound 3.16 µM) was 0.39 µM and the IC50 (second compound 10 µM) was under 0.0316 µM. The viability, T/C [1] was 103%, the viability, T/C [2] was 84.3% and the viability, T/C [3] was 69.8%. For the same compound, the viability, T/C [4] was 33.9%, the viability, T/C [5] was 19.5% and the viability, T/C [6] was 14.8%. It also gave a viability, T/C [7] of 106%, a viability, T/C [8] of 92.5% and a viability, T/C [9] of 82.1%. It also gave a viability, T/C [10] of 34.2%, a viability, T/C [11] of 20.8% and a viability, T/C [12] of 14.1%. For the same compound, the viability, T/C [13] was 105%, the viability, T/C [14] was 97% and the viability, T/C [15] was 63.8%. For the same compound, the viability, T/C [16] was 37.6%, the viability, T/C [17] was 20.6% and the viability, T/C [18] was 15.6%. The viability, T/C [19] was 93.4%, the viability, T/C [20] was 85% and the viability, T/C [21] was 71%. The viability, T/C [22] was 36.9%, the viability, T/C [23] was 19.8% and the viability, T/C [24] was 15.7%. The viability, T/C [25] was 87.2%, the viability, T/C [26] was 66.8% and the viability, T/C [27] was 55.8%. The viability, T/C [28] was 34.8%, the viability, T/C [29] was 29.4% and the viability, T/C [30] was 16.6%. It also gave a viability, T/C [31] of 32.2%, a viability, T/C [32] of 23.9% and a viability, T/C [33] of 22.2%. The viability, T/C [34] was 16.9%, the viability, T/C [35] was 14.9% and the viability, T/C [36] was 7.51%.

Work on `CC(C)n1c(=O)n(C)c2cnc3cc(F)c(-c4ccc(OCCCN5CCCCC5)nc4)cc3c21` + CN(C)c1ccc(Nc2c3ccc(NC(=O)CCN4CCCC4)cc3nc3cc(NC(=O)CCN4CCCC4)ccc23)cc1 yielded an IC50 (second compound 0.0316 µM) of over 10 µM, an IC50 (second compound 0.1 µM) of over 10 µM and an IC50 (second compound 0.316 µM) of over 10 µM. The IC50 (second compound 1 µM) was over 10 µM, the IC50 (second compound 3.16 µM) was 2.55 µM and the IC50 (second compound 10 µM) was under 0.0316 µM. The viability, T/C [1] was 115%, the viability, T/C [2] was 109% and the viability, T/C [3] was 102%. It also gave a viability, T/C [4] of 109%, a viability, T/C [5] of 102% and a viability, T/C [6] of 67.9%. It also gave a viability, T/C [7] of 102%, a viability, T/C [8] of 115% and a viability, T/C [9] of 98.2%. It also gave a viability, T/C [10] of 97.4%, a viability, T/C [11] of 97.4% and a viability, T/C [12] of 65.1%. For the same compound, the viability, T/C [13] was 102%, the viability, T/C [14] was 104% and the viability, T/C [15] was 98.7%. The viability, T/C [16] was 101%, the viability, T/C [17] was 86.1% and the viability, T/C [18] was 70.7%. For the same compound, the viability, T/C [19] was 99.8%, the viability, T/C [20] was 98.3% and the viability, T/C [21] was 113%. For the same compound, the viability, T/C [22] was 78.4%, the viability, T/C [23] was 85.1% and the viability, T/C [24] was 63.5%. It also gave a viability, T/C [25] of 84.4%, a viability, T/C [26] of 81.2% and a viability, T/C [27] of 60.4%. For the same compound, the viability, T/C [28] was 64.5%, the viability, T/C [29] was 50.3% and the viability, T/C [30] was 32.3%. For the same compound, the viability, T/C [31] was 29%, the viability, T/C [32] was 28.8% and the viability, T/C [33] was 22.1%. For the same compound, the viability, T/C [34] was 21.5%, the viability, T/C [35] was 17.9% and the viability, T/C [36] was 9.88%.
